From patent US4066753A, “Neomycin and paromomycin derivatives” (Canadian Patents and Development Limited, priority 1976, dated 1978) come the findings set out here.

By MIC is commonly meant the lowest concentration that inhibits growth of the organism. Broadly, the LD50 is the dose at which mortality reaches 50%. Read a low LD50 as a more toxic substance.

In one series the test system is A. aerogenes 357. The experiment in a line: IN VITRO antibacterial activity, A. aerogenes 357. It is filed as cell-based. The following applies: Klebsiella aerogenes; A. aerogenes 357; nutrient broth, 24 hours at 37° C; read-out: MIC. The method, then: (§1) In the Tables above MIC stands for minimum inhibitory concentration and
(§2) the results were obtained by providing halving dilutions of the test
(§3) compound in nutrient broth (concentrations usually range from 1/10,000 to
(§4) 1/320,000). These solutions are inoculated with the test organism,
(§5) incubated for 24 hours at 37° C and then examined for the presence
(§6) of growth. A test compound found to have a minimum inhibitory
(§7) concentration (MIC) of 1/160,000 is generally considered as a lead.

A further series has as its system P. aeruginosa 359. Put plainly: IN VITRO antibacterial activity, P. aeruginosa 359. It is filed as cell-based. The following applies: Pseudomonas aeruginosa; P. aeruginosa 359; nutrient broth, 24 hours at 37° C; read-out: MIC. The method, then:
as §1, §2, §3, §4, §5, §6, §7

For another series, the system named is E. coli B989. The experiment in a line: IN VITRO antibacterial activity against resistant organisms, E. coli B989. It is filed as cell-based. The following applies: Escherichia coli; resistant organism E. coli B989; nutrient broth, 24 hours at 37° C; read-out: MIC. The method, then: as §1, §2, §3, §4, §5, §6, §7
Another series has as its system Pr. vulgaris 316. The experiment in a line: IN VITRO antibacterial activity, Pr. vulgaris 316. The following applies: Proteus vulgaris; Pr. vulgaris 316; nutrient broth, 24 hours at 37° C; read-out: MIC. Type of series: cell-based. The method, then: as §1, §2, §3, §4, §5, §6, §7
In another series the test system is P. aeruginosa 377. Put plainly: IN VITRO antibacterial activity against resistant organisms, P. aeruginosa 377. Type of series: cell-based. The method, then:
as §1, §2, §3, §4, §5, §6, §7

In another series the test system is S. pullorum 358. The experiment in a line: IN VITRO antibacterial activity, S. pullorum 358. Type of series: cell-based. The following applies: Salmonella enterica; S. pullorum 358; nutrient broth, 24 hours at 37° C; read-out: MIC. The method, then:
as §1, §2, §3, §4, §5, §6, §7

A further series concerns P. aeruginosa 87442. The experiment in a line: IN VITRO antibacterial activity against resistant organisms, P. aeruginosa 87442. It is filed as cell-based. The method, then: as §1, §2, §3, §4, §5, §6, §7
Series [1] relates to S. marcesceus 854 (ATCC → 103). Put plainly: IN VITRO antibacterial activity, S. marcesceus 854 (ATCC → 103). It is filed as cell-based. The following applies: S. marcesceus 854 (ATCC → 103); nutrient broth, 24 hours at 37° C; read-out: MIC. The method, then:
as §1, §2, §3, §4, §5, §6, §7

The subject of another series is E. coli B1002. Put plainly: IN VITRO antibacterial activity against resistant organisms, E. coli B1002. It is filed as cell-based. The following applies: Escherichia coli. The method, then: as §1, §2, §3, §4, §5, §6, §7
A further series deals with S. pyogenes R 353. The experiment in a line: IN VITRO antibacterial activity, S. pyogenes R 353. It is filed as cell-based. The following applies: Streptococcus pyogenes, R353; S. pyogenes R 353; nutrient broth, 24 hours at 37° C; read-out: MIC. The method, then: as §1, §2, §3, §4, §5, §6, §7
The test system of the next series is Pr. mirabilis 360. The experiment in a line: IN VITRO antibacterial activity, Pr. mirabilis 360. Type of series: cell-based. The following applies: Proteus mirabilis; Pr. mirabilis 360; nutrient broth, 24 hours at 37° C; read-out: MIC. The method, then:
as §1, §2, §3, §4, §5, §6, §7

The subject of another series is S. fecalis 353. Put plainly: IN VITRO antibacterial activity, S. fecalis 353. Type of series: cell-based. The following applies: S. fecalis 353; nutrient broth, 24 hours at 37° C; read-out: MIC. The method, then:
as §1, §2, §3, §4, §5, §6, §7

In a further series the test system is E. Coli 198 (ATCC 1/229). The experiment in a line: IN VITRO antibacterial activity, E. Coli 198 (ATCC 1/229). Type of series: cell-based. The following applies: Escherichia coli, ATCC1; E. Coli 198 (ATCC 1/229); nutrient broth, 24 hours at 37° C; read-out: MIC. The method, then: as §1, §2, §3, §4, §5, §6, §7
For another series, the system named is S. pyogenes S B352. Put plainly: IN VITRO antibacterial activity, S. pyogenes S B352. The following applies: Streptococcus pyogenes, SB352; S. pyogenes S B352; nutrient broth, 24 hours at 37° C; read-out: MIC. It is filed as cell-based. The method, then: as §1, §2, §3, §4, §5, §6, §7
In series [2] the test system is strains of P. Aeruginosa resistant to neomycin B and paromomycin I. The experiment in a line: Antibacterial activity against resistant P. Aeruginosa. It is filed as cell-based. The method, then:
as §1, §2, §3, §4, §5, §6, §7

For series [3], the system named is Kl. pneumoniae 855 (ATCC 10081). Put plainly: IN VITRO antibacterial activity, Kl. pneumoniae 855 (ATCC 10081). Type of series: cell-based. The following applies: Klebsiella pneumoniae, ATCC10081, nutrient broth, 24 hours at 37° C. The method, then:
as §1, §2, §3, §4, §5, §6, §7

Series [4] relates to strains of E. Coli resistant to neomycin and paromomycin. The experiment in a line: Antibacterial activity against resistant E. Coli. Type of series: cell-based. The method, then: as §1, §2, §3, §4, §5, §6, §7
Another series is described as follows: in vivo. The following applies: mouse, iv, in mice (i.v), acute toxicity.
Another series relates to K. pneumoniae. Put plainly: IN VITRO antibacterial activity, K. pneumoniae. It is filed as cell-based. The following applies: Klebsiella pneumoniae; K. pneumoniae; nutrient broth, 24 hours at 37° C; read-out: MIC. The method, then: as §1, §2, §3, §4, §5, §6, §7
The next series concerns S. fecalis. The experiment in a line: IN VITRO antibacterial activity, S. fecalis. Type of series: cell-based. The following applies: S. fecalis; nutrient broth, 24 hours at 37° C; read-out: MIC. The method, then: as §1, §2, §3, §4, §5, §6, §7
A further series has as its system S. marcesceus. Put plainly: IN VITRO antibacterial activity, S. marcesceus. Type of series: cell-based. The following applies: S. marcesceus; nutrient broth, 24 hours at 37° C; read-out: MIC. The method, then:
as §1, §2, §3, §4, §5, §6, §7

A further series relates to E. coli B996. Put plainly: IN VITRO antibacterial activity, E. coli B996 (resistant to Kanamycin and paromomycin). It is filed as cell-based. The following applies: Escherichia coli, nutrient broth, 24 hours at 37° C. The method, then:
as §1, §2, §3, §4, §5, §6, §7

A further series concerns S. pullorm. Put plainly: IN VITRO antibacterial activity, S. pullorm. Type of series: cell-based. The following applies: S. pullorm; nutrient broth, 24 hours at 37° C; read-out: MIC. The method, then: as §1, §2, §3, §4, §5, §6, §7
The next series concerns E. coli 198. Put plainly: IN VITRO antibacterial activity, E. coli 198. It is filed as cell-based. The following applies: Escherichia coli; E. coli 198; nutrient broth, 24 hours at 37° C; read-out: MIC. The method, then:
as §1, §2, §3, §4, §5, §6, §7

For another series, the system named is S. pyogenes R. Put plainly: IN VITRO antibacterial activity, S. pyogenes R. It is filed as cell-based. The following applies: Streptococcus pyogenes; S. pyogenes R; nutrient broth, 24 hours at 37° C; read-out: MIC. The method, then:
as §1, §2, §3, §4, §5, §6, §7

For another series, the system named is P. aeruginosa. Put plainly: IN VITRO antibacterial activity, P. aeruginosa. It is filed as cell-based. The following applies: Pseudomonas aeruginosa; P. aeruginosa; nutrient broth, 24 hours at 37° C; read-out: MIC. The method, then: as §1, §2, §3, §4, §5, §6, §7
The next series deals with S. pyogenes S. Put plainly: IN VITRO antibacterial activity, S. pyogenes S. Type of series: cell-based. The following applies: Streptococcus pyogenes; S. pyogenes S; nutrient broth, 24 hours at 37° C; read-out: MIC. The method, then: as §1, §2, §3, §4, §5, §6, §7
For the next series, the system named is P. mirabilis. The experiment in a line: IN VITRO antibacterial activity, P. mirabilis. It is filed as cell-based. The following applies: Proteus mirabilis; P. mirabilis; nutrient broth, 24 hours at 37° C; read-out: MIC. The method, then: as §1, §2, §3, §4, §5, §6, §7
The next series deals with A. aerogenes. Put plainly: IN VITRO antibacterial activity, A. aerogenes. Type of series: cell-based. The following applies: Klebsiella aerogenes; A. aerogenes; nutrient broth, 24 hours at 37° C; read-out: MIC. The method, then: as §1, §2, §3, §4, §5, §6, §7

In brackets after ≈: the same amount, converted by molar mass. Where two headings read alike, the source gives them in different places.

For `NC[C@@H]1O[C@H](O[C@H]2[C@@H](O)[C@H](O[C@@H]3[C@@H](O)[C@H](N)C[C@H](N)[C@H]3O[C@H]3O[C@H](CN)[C@@H](O)[C@H](O)[C@H]3N)O[C@@H]2CN)[C@H](N)[C@@H](O)[C@@H]1O` [5"-Amino-5"-deoxyneomycin B, 5"-amino-5"-deoxyneomycin B], the MIC with A. aerogenes 357 stood at 0.8 µg/mL (≈ 1.3 µM); with P. aeruginosa 359, 1.6 µg/mL (≈ 2.61 µM); with E. coli B989, 1.6 µg/mL (≈ 2.61 µM); with Pr. vulgaris 316, 0.8 µg/mL (≈ 1.3 µM); in the series on P. aeruginosa 377 (Pseudomonas aeruginosa, resistant organism P. aeruginosa 377, nutrient broth, 24 hours at 37° C, read-out: MIC), 1.6 µg/mL (≈ 2.61 µM); in the series on S. pullorum 358, 0.4 µg/mL (≈ 0.652 µM). Besides, the MIC with P. aeruginosa 87442 (Pseudomonas aeruginosa, resistant organism P. aeruginosa 87442, nutrient broth, 24 hours at 37° C, read-out: MIC) was 0.8 µg/mL (≈ 1.3 µM); in series [1] it was 0.4 µg/mL (≈ 0.652 µM); in the series with E. coli B1002 (resistant organism E. coli B1002, nutrient broth, 24 hours at 37° C, read-out: MIC) it was 3.2 µg/mL (≈ 5.21 µM); in the series with S. pyogenes R 353, below 0.1 µg/mL; in the series with Pr. mirabilis 360, 0.8 µg/mL (≈ 1.3 µM); in the series with S. fecalis 353, 0.8 µg/mL (≈ 1.3 µM). The MIC in the series with E. Coli 198 (ATCC 1/229) is 0.8 µg/mL (≈ 1.3 µM); with S. pyogenes S B352 it was below 0.1 µg/mL; in series [3], 0.4 µg/mL (≈ 0.652 µM). Also, the “antibacterial activity against resistant P. Aeruginosa” value in series [2] is reported as “particularly effective”. The “antibacterial activity against resistant E. Coli” value in series [4] is on record as “particularly effective”. The compound further gave a median lethal dose (LD50) in the series “in vivo” of 60 to 80 mg/kg.

Consider `NC[C@@H]1O[C@H](O[C@H]2[C@@H](O)[C@H](O[C@@H]3[C@@H](O)[C@H](N)C[C@H](N)[C@H]3O[C@H]3O[C@H](CO)[C@@H](O)[C@H](O)[C@H]3N)O[C@@H]2CN)[C@H](N)[C@@H](O)[C@@H]1O` [5"-amino-5"-deoxyparomomycin I], for which the minimum inhibitory concentration (MIC) in the series with K. pneumoniae turned out to be 0.8 µg/mL (≈ 1.3 µM); in the series with S. fecalis, 6.4 µg/mL (≈ 10.4 µM); with S. marcesceus it was 0.8 µg/mL (≈ 1.3 µM); in the series on E. coli B996, 12.5 µg/mL (≈ 20.3 µM); with S. pullorm it was 0.8 µg/mL (≈ 1.3 µM); with E. coli 198, 6.4 µg/mL (≈ 10.4 µM). Further, the MIC in the series on S. pyogenes R was 0.4 µg/mL (≈ 0.651 µM); with P. aeruginosa, 12.5 µg/mL (≈ 20.3 µM); in the series with S. pyogenes S, below 0.2 µg/mL; in the series on P. mirabilis, 1.6 µg/mL (≈ 2.6 µM); with A. aerogenes, 1.6 µg/mL (≈ 2.6 µM). For the same compound, in [2], the “antibacterial activity against resistant P. Aeruginosa” value was “particularly effective”. For the same compound, in series [4], the “antibacterial activity against resistant E. Coli” value was “particularly effective”.

Turning to `NC[C@H]1O[C@H](O[C@H]2[C@H](O)[C@@H](O[C@H]3O[C@H](CO)[C@@H](O)[C@H](N)[C@H]3O)[C@H](N)C[C@@H]2N)[C@H](O)[C@@H](O)[C@@H]1O` [Kanamycin], the MIC is 100 µg/mL (≈ 206 µM) with E. coli B989; 3.2 µg/mL (≈ 6.6 µM) with P. aeruginosa 377 (Pseudomonas aeruginosa, 377, 24 h); 0.8 µg/mL (≈ 1.65 µM) against P. aeruginosa 87442 (Pseudomonas aeruginosa, 87442, 24 h); below 100 µg/mL with E. coli B1002 (B1002, 24 h).
